According to US12023333B2, “Phenyl-sulfamoyl.benzoyc acids as ERAP1 modulators” (GREY WOLF THERAPEUTICS LIMITED, priority 2019, dated 2024):

Target: T1, Purified ERAP1(37-941)-10His (ERAP1) (Homo sapiens, UniProt Q9NZ08)
T1 construct: Purified ERAP1(37-941)-10His (ERAP1); 10His (C)
Experiment: ERAP1 mediated hydrolysis of an amide substrate measured in a biochemical system (10-mer decapeptide substrate)
Conditions: 10-mer substrate, 23° C. for 1 h, excitation 279 nm and emission 355 nm; read-out: IC50 vs Decapeptide WRVYEKC(Dnp)ALK-acid (where Dnp is Dinitrophenyl maleimide) (10-mer)
How it was run: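 ERAP1(37-941)-10His preincubated with compound in 25 mM Bis-tris propane, 0.05% HPMC, pH 7.75, then reacted 1 h at 23 °C with 10-mer WRVYEKC(Dnp)ALK (100 μM solution added in equal volume). Fluorescence read at ex 279/em 355 nm; IC50 from 4-parameter fit.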

T1 sequence (Q9NZ08 37-941): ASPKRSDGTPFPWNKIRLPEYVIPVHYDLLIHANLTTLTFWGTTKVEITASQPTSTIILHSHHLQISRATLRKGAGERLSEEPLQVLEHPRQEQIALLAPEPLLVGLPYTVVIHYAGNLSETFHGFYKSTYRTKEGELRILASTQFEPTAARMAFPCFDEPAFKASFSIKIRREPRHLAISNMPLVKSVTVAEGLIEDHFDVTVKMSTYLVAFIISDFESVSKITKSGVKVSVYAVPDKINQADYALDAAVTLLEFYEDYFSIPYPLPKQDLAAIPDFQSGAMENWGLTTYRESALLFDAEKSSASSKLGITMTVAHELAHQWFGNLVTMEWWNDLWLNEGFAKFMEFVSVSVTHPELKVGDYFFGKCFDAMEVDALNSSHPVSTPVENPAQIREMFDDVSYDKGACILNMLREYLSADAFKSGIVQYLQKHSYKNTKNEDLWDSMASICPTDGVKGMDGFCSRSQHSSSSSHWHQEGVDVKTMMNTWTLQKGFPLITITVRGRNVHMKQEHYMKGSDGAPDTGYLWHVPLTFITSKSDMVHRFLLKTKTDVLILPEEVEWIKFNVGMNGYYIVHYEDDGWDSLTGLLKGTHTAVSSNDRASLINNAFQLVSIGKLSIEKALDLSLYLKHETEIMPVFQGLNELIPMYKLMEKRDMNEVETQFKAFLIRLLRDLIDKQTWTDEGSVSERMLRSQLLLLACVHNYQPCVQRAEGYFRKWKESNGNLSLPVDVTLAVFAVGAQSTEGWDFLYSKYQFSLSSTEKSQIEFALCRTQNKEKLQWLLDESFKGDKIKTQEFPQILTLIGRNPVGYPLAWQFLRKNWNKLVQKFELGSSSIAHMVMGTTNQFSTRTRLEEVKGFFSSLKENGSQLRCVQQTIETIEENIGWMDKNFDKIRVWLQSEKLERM

Structure (SMILES) | IC50 [nM]
N#Cc1cc(NS(=O)(=O)c2cc(C(=O)O)ccc2C2CC2)c(-c2nccs2)cc1Cl [Example 192, 3-(N-(4-chloro-5-cyano-2-(thiazol-2-yl)phenyl)sulfamoyl)-4-cyclopropylbenzoic acid] | < 500
Cc1oncc1-c1cc(NS(=O)(=O)c2cc(C(=O)O)ccc2C2CC2)c(-c2ccccn2)cc1Cl [Example 193, 3-(N-(4-chloro-5-(5-methylisoxazol-4-yl)-2-(pyridin-2-yl)phenyl)sulfamoyl)-4-cyclopropylbenzoic acid] | < 500
Cc1oncc1-c1ccc(-n2cccc2)c(NS(=O)(=O)c2cc(C(=O)O)ccc2C2CC2)c1 [Example 194, 4-cyclopropyl-3-(N-(5-(5-methylisoxazol-4-yl)-2-(pyrrol-1-yl)phenyl)sulfamoyl)benzoic acid] | < 500
N#Cc1cc(NS(=O)(=O)c2cc(C(=O)O)ccc2C2CC2)c(-c2cscn2)cc1F [Example 196, 3-(N-(5-cyano-4-fluoro-2-(thiazol-4-yl)phenyl)sulfamoyl)-4-cyclopropylbenzoic acid] | < 500
Cn1nccc1-c1ccc(-n2cccc2)c(NS(=O)(=O)c2cc(C(=O)O)ccc2C2CC2)c1 [Example 197, 4-cyclopropyl-3-(N-(5-(1-methylpyrazol-5-yl)-2-(pyrrol-1-yl)phenyl)sulfamoyl)benzoic acid] | < 500
O=C(O)c1ccc(C2CC2)c(S(=O)(=O)Nc2cc(-c3ccns3)c(F)cc2-n2cccc2)c1 [Example 198, 4-cyclopropyl-3-(N-(4-fluoro-5-(isothiazol-5-yl)-2-(pyrrol-1-yl)phenyl)sulfamoyl)benzoic acid] | < 500
Cn1nccc1-c1cc(NS(=O)(=O)c2cc(C(=O)O)ccc2C2CC2)c(-n2cccc2)cc1F [Example 199, 4-cyclopropyl-3-(N-(4-fluoro-5-(1-methylpyrazol-5-yl)-2-(pyrrol-1-yl)phenyl)sulfamoyl)benzoic acid] | < 500
Cn1nccc1-c1cc(NS(=O)(=O)c2cc(C(=O)O)ccc2C2CC2)c(-n2cccc2)cc1Cl [Example 200, 3-(N-(4-chloro-5-(1-methylpyrazol-5-yl)-2-(pyrrol-1-yl)phenyl)sulfamoyl)-4-cyclopropylbenzoic acid] | < 500
Cn1ncnc1-c1cc(NS(=O)(=O)c2cc(C(=O)O)ccc2C2CC2)c(-n2cccc2)cc1F [Example 201, 4-cyclopropyl-3-(N-(4-fluoro-5-(1-methyl-1,2,4-triazol-5-yl)-2-(pyrrol-1-yl)phenyl)sulfamoyl)benzoic acid] | < 500
Cc1oncc1-c1cc(NS(=O)(=O)c2cc(C(=O)O)ccc2C2CC2)c(-n2cccc2)cc1F [Example 202, 4-cyclopropyl-3-(N-(4-fluoro-5-(5-methylisoxazol-4-yl)-2-(pyrrol-1-yl)phenyl)sulfamoyl)benzoic acid] | < 500
O=C(O)c1ccc(C2CC2)c(S(=O)(=O)Nc2cc(-c3ccns3)c(Cl)cc2-n2cccc2)c1 [Example 203, 3-(N-(4-chloro-5-(isothiazol-5-yl)-2-(pyrrol-1-yl)phenyl)sulfamoyl)-4-cyclopropylbenzoic acid] | < 500
Cn1ncnc1-c1cc(NS(=O)(=O)c2cc(C(=O)O)ccc2C2CC2)c(-n2cccc2)cc1Cl [Example 204, 3-(N-(4-chloro-5-(1-methyl-1,2,4-triazol-5-yl)-2-(pyrrol-1-yl)phenyl)sulfamoyl)-4-cyclopropylbenzoic acid] | < 500
Cc1oncc1-c1cc(NS(=O)(=O)c2cc(C(=O)O)ccc2C2CC2)c(-n2cccc2)cc1Cl [Example 205, 3-(N-(4-chloro-5-(5-methylisoxazol-4-yl)-2-(pyrrol-1-yl)phenyl)sulfamoyl)-4-cyclopropylbenzoic acid] | < 500
O=C(O)c1ccc(C2CC2)c(S(=O)(=O)Nc2cc(-n3cnnn3)c(Cl)cc2-n2cccc2)c1 [Example 206, 3-(N-(4-chloro-2-(pyrrol-1-yl)-5-(tetrazol-1-yl)phenyl)sulfamoyl)-4-cyclopropylbenzoic acid] | < 500
O=C(O)c1ccc(C2CC2)c(S(=O)(=O)Nc2cc(-n3cnnn3)c(F)cc2-n2cccc2)c1 [Example 207, 4-cyclopropyl-3-(N-(4-fluoro-2-(pyrrol-1-yl)-5-(tetrazol-1-yl)phenyl)sulfamoyl)benzoic acid] | < 500
O=C(O)c1ccc(C2CC2)c(S(=O)(=O)Nc2cc(-n3cnnn3)ccc2-n2cccc2)c1 [Example 208, 3-(N-(2-(pyrrol-1-yl)-5-(tetrazol-1-yl)phenyl)sulfamoyl)-4-cyclopropylbenzoic acid] | < 500

The remaining lines, values ahead:

IC50 [nM] | Structure (SMILES)
< 500 | Cc1cc(C#N)cc(NS(=O)(=O)c2cc(C(=O)O)ccc2C2CC2)c1-c1ccccn1 [Example 176, 3-(N-(5-cyano-3-methyl-2-(pyridin-2-yl)phenyl)sulfamoyl)-4-cyclopropylbenzoic acid]
< 500 | Cc1cc(C#N)cc(NS(=O)(=O)c2cc(C(=O)O)ccc2C2CC2)c1-c1ccc(Cl)s1 [Example 177, 3-(N-(2-(5-chlorothiophen-2-yl)-5-cyano-3-methylphenyl)sulfamoyl)-4-cyclopropylbenzoic acid]
< 500 | N#Cc1cc(NS(=O)(=O)c2cc(C(=O)O)ccc2C2CC2)c(-c2cscn2)cc1Cl [Example 178, 3-(N-(4-chloro-5-cyano-2-(thiazol-4-yl)phenyl)sulfamoyl)-4-cyclopropylbenzoic acid]
< 500 | N#Cc1cc(NS(=O)(=O)c2cc(C(=O)O)ccc2C2CC2)c(-c2ncccn2)cc1Cl [Example 179, 3-(N-(4-chloro-5-cyano-2-(pyrimidin-2-yl)phenyl)sulfamoyl)-4-cyclopropylbenzoic acid]
< 500 | N#Cc1cc(NS(=O)(=O)c2cc(C(=O)O)ccc2C2CC2)c(-c2ccsn2)cc1Cl [Example 180, 3-(N-(4-chloro-5-cyano-2-(isothiazol-3-yl)phenyl)sulfamoyl)-4-cyclopropylbenzoic acid]
< 500 | N#Cc1cc(NS(=O)(=O)c2cc(C(=O)O)ccc2C2CC2)c(-c2ccsn2)cc1F [Example 181, 3-(N-(5-cyano-4-fluoro-2-(isothiazol-3-yl)phenyl)sulfamoyl)-4-cyclopropylbenzoic acid]
< 500 | N#Cc1cc(NS(=O)(=O)c2cc(C(=O)O)ccc2C2CC2)c(-c2ncccn2)cc1F [Example 182, 3-(N-(5-cyano-4-fluoro-2-(pyrimidin-2-yl)phenyl)sulfamoyl)-4-cyclopropylbenzoic acid]
< 500 | N#Cc1cc(NS(=O)(=O)c2cc(C(=O)O)ccc2C2CC2)c(-c2nccs2)cc1F [Example 183, 3-(N-(5-cyano-4-fluoro-2-(thiazol-2-yl)phenyl)sulfamoyl)-4-cyclopropylbenzoic acid]
< 500 | O=C(O)c1ccc(C2CC2)c(S(=O)(=O)Nc2cc(-c3ccns3)c(F)cc2-c2ccccn2)c1 [Example 184, 4-cyclopropyl-3-(N-(4-fluoro-5-(isothiazol-5-yl)-2-(pyridin-2-yl)phenyl)sulfamoyl)benzoic acid]
< 500 | Cn1nccc1-c1cc(NS(=O)(=O)c2cc(C(=O)O)ccc2C2CC2)c(-c2ccccn2)cc1F [Example 185, 4-cyclopropyl-3-(N-(4-fluoro-5-(1-methylpyrazol-5-yl)-2-(pyridin-2-yl)phenyl)sulfamoyl)benzoic acid]
< 500 | Cn1ncnc1-c1cc(NS(=O)(=O)c2cc(C(=O)O)ccc2C2CC2)c(-c2ccccn2)cc1F [Example 186, 4-cyclopropyl-3-(N-(4-fluoro-5-(1-methyl-1,2,4-triazol-5-yl)-2-(pyridin-2-yl)phenyl)sulfamoyl)benzoic acid]
< 500 | O=C(O)c1ccc(C2CC2)c(S(=O)(=O)Nc2cc(-n3cnnn3)c(Cl)cc2-c2ccccn2)c1 [Example 187, 3-(N-(4-chloro-2-(pyridin-2-yl)-5-(tetrazol-1-yl)phenyl)sulfamoyl)-4-cyclopropylbenzoic acid]
< 500 | Cn1nccc1-c1cc(NS(=O)(=O)c2cc(C(=O)O)ccc2C2CC2)c(-c2ccccn2)cc1Cl [Example 188, 3-(N-(4-chloro-5-(1-methylpyrazol-5-yl)-2-(pyridin-2-yl)phenyl)sulfamoyl)-4-cyclopropylbenzoic acid]
< 500 | Cn1ncnc1-c1cc(NS(=O)(=O)c2cc(C(=O)O)ccc2C2CC2)c(-c2ccccn2)cc1Cl [Example 189, 3-(N-(4-chloro-5-(1-methyl-1,2,4-triazol-5-yl)-2-(pyridin-2-yl)phenyl)sulfamoyl)-4-cyclopropylbenzoic acid]
< 500 | O=C(O)c1ccc(C2CC2)c(S(=O)(=O)Nc2cc(-n3cnnn3)c(F)cc2-c2ccccn2)c1 [Example 190, 4-cyclopropyl-3-(N-(4-fluoro-2-(pyridin-2-yl)-5-(tetrazol-1-yl)phenyl)sulfamoyl)benzoic acid]
< 500 | O=C(O)c1ccc(C2CC2)c(S(=O)(=O)Nc2cc(-c3ccns3)c(Cl)cc2-c2ccccn2)c1 [Example 191, 3-(N-(4-chloro-5-(isothiazol-5-yl)-2-(pyridin-2-yl)phenyl)sulfamoyl)-4-cyclopropylbenzoic acid]
